Reference: ChEMBL document CHEMBL3137667, “[Drug-induced liver injury; fourteenth updated edition of the bibliographic database of liver injuries and related drugs]” (Gastroenterol Clin Biol, 2004)

Assays:
[1] = human, serum, 4383 h
[2] = human, serum
[3] = Highest frequency of acute liver toxicity observed during clinical trials, expressed as a percentage. [column '% AIGUE' in source]; conditions: human
[4] = human
[5] = human; remark: listed apart in the source
[6] = human, serum; remark: listed apart in the source
[7] = human; remark: listed apart in the source
[8] = Highest frequency of moderate liver toxicity observed during clinical trials, expressed as a percentage. [column '% BIOL' in source]; conditions: human
[9] = Proposed mechanism(s) of liver damage. [column 'MEC' in source]; conditions: human
[10] = human; remark: listed apart in the source
[11] = human; remark: listed apart in the source
[12] = human; remark: listed apart in the source
[13] = human; remark: listed apart in the source
[14] = human; remark: listed apart in the source
[15] = human; remark: listed apart in the source
[16] = Times to onset, minimal and maximal, observed in the indexed observations. [column 'DELAI' in source]; conditions: human
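For Hepatotoxicity (association with vascular disease) in this document: count of indexed literature references reporting vascular liver injury in humans, e.g. peliosis hepatitis, hepatic veno-occlusive disease or Budd-Chiari syndrome.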
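For Hepatotoxicity (benign tumour) in this document: value is a count of indexed literature references citing a benign tumour confirmed by histopathology.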
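For Hepatotoxicity (choleostasis) in this document: human cholestatic liver injury, shown by histopathology or by peak ALT or AST elevation over alkaline phosphatase ratio below 2, value counts indexed literature reports.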
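For Hepatotoxicity (chronic liver disease) in this document: chronic liver injury confirmed by histopathology or persistently raised serum aminotransferase activity beyond 6 months, value given as the count of indexed literature references.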
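For Hepatotoxicity (cirrhosis) in this document: value is a count of indexed literature references reporting cirrhosis confirmed by histopathology.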
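For Hepatotoxicity (cytolytic) in this document: human cytolytic liver injury, shown by histopathology or by a ratio above 5 of peak ALT or AST elevation to alkaline phosphatase elevation, value counts indexed references.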
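For Hepatotoxicity (granulomatous hepatitis) in this document: value is a count of indexed literature references reporting granulomatous liver disease confirmed by histopathology.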
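For Hepatotoxicity (malignant tumour) in this document: malignant tumour confirmed by histopathology, value gives the count of indexed literature references reporting it.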
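For Hepatotoxicity (severe hepatitis) in this document: human clinical data: severe hepatitis, meaning potentially life-threatening liver failure or clinically observed cases, the value counts how many indexed literature references report it.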
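For Hepatotoxicity (steatosis) in this document: steatosis confirmed by histopathology, value is the count of indexed references.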

Compound	Hepatotoxicity (chronic liver disease) [1]	Hepatotoxicity (acute) [2]	Hepatotoxicity (acute) [3] [%]	Hepatotoxicity (severe hepatitis) [4]	Hepatotoxicity (granulomatous hepatitis) [5]	Hepatotoxicity (moderate) [6]	Hepatotoxicity (association with vascular disease) [7]	Hepatotoxicity (moderate) [8] [%]	Hepatotoxicity (mechanism) [9]	Hepatotoxicity (benign tumour) [10]	Hepatotoxicity (cirrhosis) [11]	Hepatotoxicity (steatosis) [12]	Hepatotoxicity (choleostasis) [13]	Hepatotoxicity (malignant tumour) [14]	Hepatotoxicity (cytolytic) [15]	Hepatotoxicity (time to onset) [16]	further results
CN(Cc1cnc2nc(N)nc(N)c2n1)c1c(Cl)cc(C(=O)N[C@@H](CCC(=O)O)C(=O)O)cc1Cl	0	0	0	0	0	2	0	16.7	Dose-dependant	0	0	0	0	0	0		
O=C(NO)c1ccc(O)c(O)c1	0	1	0	0	0	1	0	0	Dose-dependant	0	0	0	0	0	0		
COc1ccccc1Oc1c(NS(=O)(=O)c2ccc(C(C)(C)C)cc2)nc(-c2ncccn2)nc1OCCO [BOSENTAN]	0	5	5.3	0	0	12	0	15	Dose-dependant	0	0	0	1	0	4		
CCCCNC(=N)NC(=N)N [BUFORMIN]	0	1				0	0			0	0	0		0			Hepatotoxicity (acute) ([3]; Liver): 0%; Hepatotoxicity (severe hepatitis) ([4]; Liver): 0; Hepatotoxicity (granulomatous hepatitis) ([5]; Liver): 0; Hepatotoxicity (moderate) ([8]; Liver): 0%; Hepatotoxicity (mechanism) ([9]; Liver): Allergic; Hepatotoxicity (choleostasis) ([13]; Liver): 0; Hepatotoxicity (cytolytic) ([15]; Liver): 0
CC(C)(O/N=C(\C(=O)N[C@@H]1C(=O)N2C(C(=O)[O-])=C(C[n+]3ccccc3)CS[C@H]12)c1csc(N)n1)C(=O)O [CEFTAZIDIME]	0	2	2.5	0	0	77	0	35.7	Dose-dependant	0	0	0	2	0	0		
COc1nc(C)ccc1CN1CC1C#N (stereo not given) [CIAMEXON]	0	0	0	0	0	2	0	14	Dose-dependant	0	0	0	0	0	0		
CCN(CC)CC[n+]1ccc2c(C)c3[nH]c4ccc(O)cc4c3c(C)c2c1.[Cl-] [DATELLIPTIUM CHLORIDE]	0	2	7.1	0	0	2	0	66.7	Dose-dependant	0	0	0	0	0	2		
DALTEPARIN SODIUM	0	0	0	0	0	3	0	2.6		0	0	0	0	0	0	4 days	
IVERMECTIN	0	0	0	0	0	5	0	23.3		0	0	0	0	0	0	2 days - 1 week	
MEGLUMINE ANTIMONATE	0	1	0	0	0	3	0	6		0	0	0	0	0	0	6 hours - 6 days	
MUROMONAB-CD3	0	1	0	0	0	0	0	0		0	0	0	0	0	1	1 days	
SERRAPEPTASE	0	1	0	0	1	0	0	0		0	0	0	0	0	0	2 days	
SPIRAMYCIN	0	4	0	0	0	0	0	0		0	0	0	3	0	0	1 day - 4 weeks	
UROKINASE	0	1	0	0	0	0	0	0		0	0	0	0	0	1	2 days	
[3-(8,8-Diethyl-2-aza-8-germa-spiro[4.5]dec-2-yl)-propyl]-dimethyl-amine	0	2	6.5	0	0	6	0	27		0	0	0	0	0	0	8 weeks	
